In publication PMC10279527, “Structural basis of metabolite transport by the chloroplast outer envelope channel OEP21” (Nature Structural & Molecular Biology, 2023):
Several values for one entry are separate records, joined by “and”; a condition that tells them apart may be missing. Equal entries are not always repeated. Where two headings read alike, the source gives them in different places.

Tests used:
OEP21 [1] = target: T1, OEP21 (Pisum sativum, UniProt Q9SM57); assay: CD-detected thermal melting of OEP21 in presence of metabolites; assay type: binding, garden pea; parameters: made in house; settings: for Melting point: ED Fig. 4a, OEP21 with 0.5 mM metabolite, CD at 215 nm, Apo 58.5; for raw CD / rel CD: 500 uM
OEP21 wt [2] = target: T2, OEP21 wt (Pisum sativum, UniProt Q9SM57); assay: SEC metabolite translocation assay with OEP21 WT proteoliposomes;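 on all read-outs here: control is liposomes reconstituted without protein, prepared alongside. Molecule content inside liposomes measured after Triton X-100 disruption. PD10 SEC runs done with or without ATP and/or MgCl2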; assay type: biochemical, garden pea; settings: for Relative content (% of mean Control): Fig. 4f, WT proteoliposomes, molecules of increasing molecular weight; for passage through the OEP21 channel (in words): proteoliposomes, SEC, deadtime ~4 min
T2 construct: made in house

OEP21 [3] = target: T1, OEP21; assay: Isothermal titration calorimetry (ITC) of OEP21 with metabolites; assay type: binding, garden pea; parameters: made in house; settings: for fold increase in Kd: individual determination KD1; for fold increase in Kd / fold increase in Kd, mean values: relative to ATP pH7; for binding affinity for OEP21 (in words): ITC or FP
OEP21 wt [4] = target: T2, OEP21 wt; assay: FP competition with preformed MANT-ATP/OEP21-WT complex; assay type: binding, garden pea; settings: read-out: IC50 (dissociation of MANT-ATP); OEP21-WT; 1 µM MANT-ATP, 1 µM protein
Method: (§1) FP assays were performed on a spectrofluorometer FP-8300 (Jasco) equipped with a water bath cooling system MCM-100 (Jasco). […] A buffer containing no EDTA was used when MgCl2 was present. […] KD values were derived by fitting the data to a one-site binding model. […] All FP experiments were performed as triplicates.

OEP21 wt [5] = target: T2, OEP21 wt; assay: NMR titrations (2D-[15N,1H]-TROSY) of OEP21 with metabolites; assay type: binding, garden pea
[6] = ITC of ATP, GAP or phosphate with magnesium; assay type: binding; settings: 10 mM HEPES pH7.0, 20 mM NaCl, read-out: KD for Mg^2+
Method: ITC experiments were performed with a MicroCal PEAQ-ITC instrument (Malvern Panalytical) at 25 °C in 10 mM HEPES pH 7.0, 20 mM NaCl, 0.5 mM EDTA, 1 mM DTT, 50 mM LDAO. […] Curve fitting and data analysis were done with the Malvern PEAQ-ITC software.
(a) (left) 2D-[^15N,^1H]-TROSY NMR spectra of 400 µM ^2H,^15N-labeled OmpX in LDAO micelles in 20 mM sodium phosphate, pH6.0, 50 mM NaCl, 0.5 mM EDTA and the indicated concentrations of D-GAP at 30 °C and 1.2 GHz magnetic field. (right) 2D-projections along the ^1H dimension of the 2D-spectra shown on (left). […] (right) Relative NMR peak intensities derived from the data in (left) and (middle). Buffer: 10 mM Na-phosphate pH7.0, 20 mM NaCl, 7% (v/v) D2O. […] (right) 150 mM MgCl2 was titrated into 15 mM potassium phosphate (Pi). Buffer conditions for all experiments were: 10 mM HEPES pH7.0, 20 mM NaCl.

OEP21 [7] = target: T1, OEP21; assay: Amide hydrogen exchange NMR (CLEANEX) of OEP21 L5; parameters: made in house; species or system garden pea; settings: 2 mM ATP or 5 mM GAP; 303 K, pH 6.0
OEP21 [8] = target: T1, OEP21; assay: Trypsin cleavage of recombinant OEP21 in liposomes; parameters: made in house; species or system garden pea; settings: 10 µM OEP21 in liposomes; 5 mM metabolite
Method: Sample aliquots were quenched by addition of 1 mM PMSF at the indicated time points and were analyzed by SDS–PAGE.

[9] = test system: OEP21 variants (single point mutations, ΔL5); assay: Fluorescence polarization binding of MANT-ATP to OEP21 variants;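 further: KD obtained by fitting fluorescence polarization data to a one-site binding model, each experiment run in triplicate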; parameters: species or system garden pea; settings: FP with MANT-ATP, Fig. 3e; 14 point variants and ΔL5
OEP21 wt [10] = target: T2, OEP21 wt; assay: Fluorescence polarization (FP) binding of MANT-ATP (or MANT-GMPPNP) to OEP21-WT, also at varied NaCl and MgCl2; parameters: species or system garden pea; settings: FP
Method: as §1

For `NC(=O)C1=CN([C@@H]2O[C@H](COP(=O)(O)OP(=O)(O)OC[C@H]3O[C@@H](n4cnc5c(N)ncnc54)[C@H](O)[C@@H]3O)[C@@H](O)[C@H]2O)C=CC1` [NADH], which Melting point (OEP21 [1]) is on record?
Its Melting point is 58.83 ｡C.

And the “Relative content (% of mean Control)” value (OEP21 wt [2]; Mean)?
Its value is 33.6575 % of mean Control.

What about the “Relative content (% of mean Control)” value (OEP21 wt [2]; single replicates) of the same molecule?
The value was 33.3345 % of mean Control and 33.6928 % of mean Control and 33.9453 % of mean Control.

With `O=c1ccn([C@@H]2O[C@H](COP(=O)(O)OP(=O)(O)OP(=O)(O)O)[C@@H](O)[C@H]2O)c(=O)[nH]1` [UTP] as the molecule, how does the Melting point (OEP21 [1]) read?
Its Melting point is 63.58 ｡C.

And the “fold increase in Kd” value (OEP21 [3])?
Its value is 2.55.

What about the “fold increase in Kd, mean values” (OEP21 [3]) of the same molecule?
The value was 2.55.

With Vitamin B12 as the molecule, how does the “Relative content (% of mean Control)” value (OEP21 wt [2]; Mean) read?
Its value is 99.2057 % of mean Control.

What about the “Relative content (% of mean Control)” value (OEP21 wt [2]; single replicates) of the same molecule?
The value was 105.56 % of mean Control and 96.0286 % of mean Control (2×).

And the “passage through the OEP21 channel (in words)” value (OEP21 wt [2])?
Its value is “cannot pass”.

Which Melting point (OEP21 [1]) does the source give for `Nc1ccn([C@@H]2O[C@H](COP(=O)(O)OP(=O)(O)OP(=O)(O)O)[C@@H](O)[C@H]2O)c(=O)n1` [CTP] here?
The Melting point was 63.71 ｡C.

And the “fold increase in Kd” value (OEP21 [3])?
The value was 1.35.

What about the “fold increase in Kd, mean values” (OEP21 [3]) of the same molecule?
Its value is 1.35.

For `C=C(OP(=O)(O)O)C(=O)O` [PEP], which Melting point (OEP21 [1]) is on record?
The Melting point was 58.37 ｡C.

With `Nc1nc2c(ncn2[C@@H]2O[C@H](COP(=O)(O)OP(=O)(O)OP(=O)(O)O)[C@@H](O)[C@H]2O)c(=O)[nH]1` [GTP] as the molecule, how does the Melting point (OEP21 [1]) read?
The Melting point was 66.48 ｡C.

And the “fold increase in Kd” value (OEP21 [3])?
Its value is 0.59.

What about the “fold increase in Kd, mean values” (OEP21 [3]) of the same molecule?
Its value is 0.59.

What does the source list for `O=P(O)(O)O` [Phosphate]?
Relative content (% of mean Control) (OEP21 wt [2]; Mean): 13.1637 % of mean Control; Relative content (% of mean Control) (OEP21 wt [2]; single replicates): 11.8165 % of mean Control and 12.9577 % of mean Control and 14.7171 % of mean Control; IC50 (OEP21 wt [4]): ~10 mM; Kd (OEP21 wt [5]; individual determinations KD1-KD12, read-out: Kd): 8.73 mM and 3.66 mM and 15 mM and 9.02 mM and 8.71 mM and 10.4 mM and 5.02 mM and 3.5 mM and 11 mM and 15.9 mM and 20.7 mM and 4.68 mM; Kd (OEP21 wt [5]; mean, read-out: Kd, mean values): 9.7 mM; Kd ([6]; listed as Pi): 9 ± 1 mM; Kd [6]: ~9 mM

Which results are given for `Nc1ncnc2c1ncn2[C@@H]1O[C@H](COP(=O)(O)OP(=O)(O)O)[C@@H](O)[C@H]1O` [ADP]?
Melting point (OEP21 [1]): 59.2 ｡C; binding affinity for OEP21 (in words) (OEP21 [3]; Fig. 3c): markedly reduced; fold increase in Kd (OEP21 [3]): 10.8; fold increase in Kd, mean values (OEP21 [3]): 10.8

With `O=S1(=O)OC(c2cc(Br)c(O)c(Br)c2)(c2cc(Br)c(O)c(Br)c2)c2ccccc21` [Bromophenol Blue, reference compound] as the molecule, how does the “Relative content (% of mean Control)” value (OEP21 wt [2]; Mean) read?
Its value is 44.3038 % of mean Control.

And the “Relative content (% of mean Control)” value (OEP21 wt [2]; single replicates)?
Its value is 45.5696 % of mean Control and 43.6709 % of mean Control (2×).

What about the “passage through the OEP21 channel (in words)” value (OEP21 wt [2]) of the same molecule?
The value was “lower translocation efficiency”.

What does the source list for `Nc1ncnc2c1ncn2C1OC(COP(=O)(O)OP(=O)(O)OP(=O)(O)O)C(O)C1O` (centres unmarked) [ATP]?
amide hydrogen exchange rates in L5 in the complex (in words) (OEP21 [7]): reduced; effect on trypsin digestion of L5 (in words) (OEP21 [8]): slightly protected L5 from proteolytic digestion; raw CD (OEP21 [1]; 21 °C): -26.3487; raw CD (OEP21 [1]; 58 °C): -23.5155; raw CD (OEP21 [1]; 63 °C): -19.1017; raw CD (OEP21 [1]; 66 °C): -5.813; rel CD (OEP21 [1]; 66 °C): 0.1482; rel CD (OEP21 [1]; 68 °C): 0.08235; raw CD (OEP21 [1]; 69 °C): -3.142; raw CD (OEP21 [1]; 70 °C): -4.096; raw CD (OEP21 [1]; 71 °C): -2.84; raw CD (OEP21 [1]; 71.5 °C): -3.658; raw CD (OEP21 [1]; 74 °C): -2.072; rel CD (OEP21 [1]; 76 °C): 0.01626; raw CD (OEP21 [1]; 77 °C): -2.742; rel CD (OEP21 [1]; 77 °C): 0.01867; raw CD (OEP21 [1]; 79 °C): -1.936; raw CD (OEP21 [1]; 79.5 °C): -2.866; raw CD (OEP21 [1]; 80 °C): -3; raw CD (OEP21 [1]; 82 °C): -1.776; rel CD (OEP21 [1]; 82 °C): -0.02212; raw CD (OEP21 [1]; 83.5 °C): -1.529; raw CD (OEP21 [1]; 84 °C): -3.442; rel CD (OEP21 [1]; 87 °C): -0.01175; rel CD (OEP21 [1]; 87.5 °C): 0.006103; rel CD (OEP21 [1]; 88 °C): 0.001624; raw CD (OEP21 [1]; 88.5 °C): -3.139; rel CD (OEP21 [1]; 90 °C): -0.0159; rel CD (OEP21 [1]; 90.5 °C): -0.01305; rel CD (OEP21 [1]; 92 °C): 0.001685; rel CD (OEP21 [1]; 93 °C): -0.01165; raw CD (OEP21 [1]; 95 °C): -2.644; rel CD (OEP21 [1]; 97 °C): -0.003556; raw CD (OEP21 [1]; 98 °C): -2.053; raw CD (OEP21 [1]; 100 °C): -2.629; Melting point (OEP21 [1]): 63.08 ｡C; passage through the OEP21 channel (in words) (OEP21 wt [2]): passed through the channel; binding stoichiometry n (OEP21 [3]; ITC, Fig. 3a): 1.14 ± 0.16; deviation of KD of OEP21 variants from the wild-type value [9]: ≤ 50%; Kd [6]: 0.05 mM and 0.054 mM; decrease in affinity (OEP21 wt [10]; 50 mM MgCl2 versus 0): ~50 fold; drop in binding affinity (OEP21 wt [10]; 2 M NaCl versus 0): ~120 fold

With `Cc1cc2nc3c(=O)[nH]c(=O)nc-3n(C[C@H](O)[C@H](O)[C@H](O)COP(=O)(O)OP(=O)(O)OC[C@H]3O[C@@H](n4cnc5c(N)ncnc54)[C@H](O)[C@@H]3O)c2cc1C` [FAD] as the molecule, how does the “Relative content (% of mean Control)” value (OEP21 wt [2]; Mean) read?
Its value is 46.1734 % of mean Control.

And the “Relative content (% of mean Control)” value (OEP21 wt [2]; single replicates)?
Its value is 47.6939 % of mean Control and 45.5112 % of mean Control and 45.315 % of mean Control.

Which results are given for `Nc1ncnc2c1ncn2[C@@H]1O[C@H](COP(=O)(O)O)[C@@H](O)[C@H]1O` [AMP]?
Melting point (OEP21 [1]): 59.12 ｡C; binding affinity for OEP21 (in words) (OEP21 [3]; Fig. 3c): no binding could be detected; Fold increase in KD (OEP21 [3]; Fig. 3c, n.b. = no binding could be detected by ITC): n.b.; fold increase in Kd, mean values (OEP21 [3]): 0

With “lysozyme: the ~14-kDa protein lysozyme [reference compound]” as the molecule, how does the “passage through the OEP21 channel (in words)” value (OEP21 wt [2]) read?
The value was “cannot pass”.

With `NC(=O)C1=CN([C@@H]2O[C@H](COP(=O)(O)OP(=O)(O)OC[C@H]3O[C@@H](n4cnc5c(N)ncnc54)[C@H](OP(=O)(O)O)[C@@H]3O)[C@@H](O)[C@H]2O)C=CC1` [NADPH] as the molecule, how does the Melting point (OEP21 [1]) read?
Its Melting point is 60.17 ｡C.

And the “Relative content (% of mean Control)” value (OEP21 wt [2]; Mean)?
The value was 30.937 % of mean Control.

And the “Relative content (% of mean Control)” value (OEP21 wt [2]; single replicates)?
Its value is 31.31 % of mean Control and 32.4982 % of mean Control and 29.0027 % of mean Control.

For `O=C(O)[C@H](O)COP(=O)(O)O` [3PGA], which Melting point (OEP21 [1]) is on record?
The Melting point was 58.78 ｡C.
